{
  "source": "ChEMBL document CHEMBL3232733",
  "about": "“Design, synthesis, crystallographic studies, and preliminary biological appraisal of new substituted triazolo[4,3-b]pyridazin-8-amine derivatives as tankyrase inhibitors” (J Med Chem, 2014)",
  "key": {"[1]": {"molecular_target": "T1, Protein mono-ADP-ribosyltransferase PARP10 (Homo sapiens) (UniProt Q53GL7)", "T1 sequence (whole entry)": "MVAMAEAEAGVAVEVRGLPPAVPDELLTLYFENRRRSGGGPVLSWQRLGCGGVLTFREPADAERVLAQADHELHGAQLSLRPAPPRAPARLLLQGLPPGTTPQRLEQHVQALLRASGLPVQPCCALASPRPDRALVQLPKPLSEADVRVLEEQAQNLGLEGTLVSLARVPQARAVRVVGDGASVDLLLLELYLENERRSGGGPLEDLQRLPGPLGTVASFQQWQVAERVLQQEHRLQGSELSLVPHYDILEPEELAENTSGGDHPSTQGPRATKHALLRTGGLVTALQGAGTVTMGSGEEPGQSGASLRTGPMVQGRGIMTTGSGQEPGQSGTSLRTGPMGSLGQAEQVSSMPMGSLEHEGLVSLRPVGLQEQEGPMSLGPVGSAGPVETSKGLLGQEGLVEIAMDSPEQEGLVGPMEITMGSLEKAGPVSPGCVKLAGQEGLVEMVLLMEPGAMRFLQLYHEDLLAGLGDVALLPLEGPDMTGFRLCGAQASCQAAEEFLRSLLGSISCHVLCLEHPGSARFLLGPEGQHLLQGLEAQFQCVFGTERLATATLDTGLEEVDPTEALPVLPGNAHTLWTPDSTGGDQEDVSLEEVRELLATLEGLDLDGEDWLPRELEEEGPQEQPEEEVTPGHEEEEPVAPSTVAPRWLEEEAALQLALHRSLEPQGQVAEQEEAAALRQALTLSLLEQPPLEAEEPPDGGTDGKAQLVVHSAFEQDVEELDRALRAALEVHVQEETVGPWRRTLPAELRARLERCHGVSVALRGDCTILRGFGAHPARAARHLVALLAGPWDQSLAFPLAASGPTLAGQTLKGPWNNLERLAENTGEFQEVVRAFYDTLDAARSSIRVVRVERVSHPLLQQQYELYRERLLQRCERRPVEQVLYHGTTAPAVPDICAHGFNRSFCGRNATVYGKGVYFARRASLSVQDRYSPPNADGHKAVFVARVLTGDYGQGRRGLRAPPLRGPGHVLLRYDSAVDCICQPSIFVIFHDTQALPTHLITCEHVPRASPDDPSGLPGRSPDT", "settings": "10 uM", "description": "Inhibition of recombinant human PARP-10 at 10 uM relative to control"}, "DLD-1": {"tested_on": "DLD-1", "experiment": "Cytotoxicity against human DLD1 cells assessed as growth inhibition at 1 to 20 uM measured on day 10 by crystal violet staining", "format": "functional, cell-based"}, "[2]": {"molecular_target": "Protein mono-ADP-ribosyltransferase PARP6 (Homo sapiens) (UniProt Q2NL67)", "sequence (Q2NL67 whole entry)": "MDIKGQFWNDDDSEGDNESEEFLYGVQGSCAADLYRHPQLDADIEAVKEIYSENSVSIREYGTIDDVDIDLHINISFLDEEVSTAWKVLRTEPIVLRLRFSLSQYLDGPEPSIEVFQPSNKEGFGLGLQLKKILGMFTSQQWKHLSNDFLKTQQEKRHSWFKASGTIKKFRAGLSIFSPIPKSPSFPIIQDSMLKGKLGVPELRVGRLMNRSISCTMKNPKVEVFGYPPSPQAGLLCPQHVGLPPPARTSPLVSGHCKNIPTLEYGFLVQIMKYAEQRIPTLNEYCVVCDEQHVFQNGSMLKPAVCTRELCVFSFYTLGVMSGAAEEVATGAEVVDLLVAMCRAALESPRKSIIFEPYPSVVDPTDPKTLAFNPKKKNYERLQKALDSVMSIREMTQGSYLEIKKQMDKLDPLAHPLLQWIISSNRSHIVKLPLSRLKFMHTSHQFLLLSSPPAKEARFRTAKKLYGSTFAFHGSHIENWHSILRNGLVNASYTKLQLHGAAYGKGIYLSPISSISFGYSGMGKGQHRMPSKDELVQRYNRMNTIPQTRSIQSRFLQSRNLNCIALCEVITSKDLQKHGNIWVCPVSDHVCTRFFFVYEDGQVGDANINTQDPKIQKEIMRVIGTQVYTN", "settings": "10 uM", "description": "Inhibition of recombinant human PARP-6 at 10 uM relative to control"}, "[3]": {"molecular_target": "T2, Protein mono-ADP-ribosyltransferase TIPARP (Homo sapiens) (UniProt Q7Z3E1)", "T2 sequence (whole entry)": "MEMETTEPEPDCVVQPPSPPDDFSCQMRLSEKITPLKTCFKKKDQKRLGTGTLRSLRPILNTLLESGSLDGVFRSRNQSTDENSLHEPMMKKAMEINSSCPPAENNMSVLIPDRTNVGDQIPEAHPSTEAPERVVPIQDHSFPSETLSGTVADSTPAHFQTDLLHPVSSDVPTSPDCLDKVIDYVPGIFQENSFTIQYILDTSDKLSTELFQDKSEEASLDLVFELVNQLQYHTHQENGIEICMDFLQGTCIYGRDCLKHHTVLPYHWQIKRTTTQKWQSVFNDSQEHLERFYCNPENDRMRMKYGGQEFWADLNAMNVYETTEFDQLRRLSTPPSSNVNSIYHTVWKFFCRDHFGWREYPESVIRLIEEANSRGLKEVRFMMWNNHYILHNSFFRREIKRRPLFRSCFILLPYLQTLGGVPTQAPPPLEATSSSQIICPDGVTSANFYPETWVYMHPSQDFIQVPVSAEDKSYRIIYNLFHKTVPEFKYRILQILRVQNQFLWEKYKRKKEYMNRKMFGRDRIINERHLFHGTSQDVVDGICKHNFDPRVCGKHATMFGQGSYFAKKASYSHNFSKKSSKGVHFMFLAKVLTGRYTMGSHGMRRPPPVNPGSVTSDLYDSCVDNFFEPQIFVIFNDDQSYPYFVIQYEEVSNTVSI", "settings": "10 uM", "description": "Inhibition of recombinant human PARP-7 at 10 uM relative to control"}, "[4]": {"molecular_target": "T3, Protein mono-ADP-ribosyltransferase PARP8 (Homo sapiens) (UniProt Q8N3A8)", "T3 sequence (whole entry)": "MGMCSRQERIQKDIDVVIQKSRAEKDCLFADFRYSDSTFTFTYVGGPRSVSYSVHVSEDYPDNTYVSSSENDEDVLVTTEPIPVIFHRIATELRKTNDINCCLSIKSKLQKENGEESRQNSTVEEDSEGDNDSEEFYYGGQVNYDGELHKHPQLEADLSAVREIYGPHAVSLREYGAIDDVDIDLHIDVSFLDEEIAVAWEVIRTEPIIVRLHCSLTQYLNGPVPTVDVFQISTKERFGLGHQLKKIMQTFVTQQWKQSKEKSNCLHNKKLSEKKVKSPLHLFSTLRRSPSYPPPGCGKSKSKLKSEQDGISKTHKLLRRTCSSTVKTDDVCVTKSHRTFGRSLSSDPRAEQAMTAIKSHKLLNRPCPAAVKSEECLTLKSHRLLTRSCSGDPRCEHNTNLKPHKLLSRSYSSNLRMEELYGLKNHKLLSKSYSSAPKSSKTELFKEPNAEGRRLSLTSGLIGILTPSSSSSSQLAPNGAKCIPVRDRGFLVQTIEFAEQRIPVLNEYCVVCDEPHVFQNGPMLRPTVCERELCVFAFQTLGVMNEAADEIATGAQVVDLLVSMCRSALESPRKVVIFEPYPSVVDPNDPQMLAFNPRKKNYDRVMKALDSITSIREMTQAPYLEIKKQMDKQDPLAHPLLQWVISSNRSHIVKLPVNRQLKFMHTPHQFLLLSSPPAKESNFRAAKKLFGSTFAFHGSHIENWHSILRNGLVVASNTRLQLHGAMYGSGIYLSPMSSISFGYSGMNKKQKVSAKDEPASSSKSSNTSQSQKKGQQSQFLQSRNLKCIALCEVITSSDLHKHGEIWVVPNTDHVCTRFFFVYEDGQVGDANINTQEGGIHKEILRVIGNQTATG", "settings": "10 uM", "description": "Inhibition of recombinant human PARP-8 at 10 uM relative to control"}, "[5]": {"molecular_target": "Poly [ADP-ribose] polymerase 1 (Homo sapiens, UniProt P09874)", "sequence (P09874 whole entry)": "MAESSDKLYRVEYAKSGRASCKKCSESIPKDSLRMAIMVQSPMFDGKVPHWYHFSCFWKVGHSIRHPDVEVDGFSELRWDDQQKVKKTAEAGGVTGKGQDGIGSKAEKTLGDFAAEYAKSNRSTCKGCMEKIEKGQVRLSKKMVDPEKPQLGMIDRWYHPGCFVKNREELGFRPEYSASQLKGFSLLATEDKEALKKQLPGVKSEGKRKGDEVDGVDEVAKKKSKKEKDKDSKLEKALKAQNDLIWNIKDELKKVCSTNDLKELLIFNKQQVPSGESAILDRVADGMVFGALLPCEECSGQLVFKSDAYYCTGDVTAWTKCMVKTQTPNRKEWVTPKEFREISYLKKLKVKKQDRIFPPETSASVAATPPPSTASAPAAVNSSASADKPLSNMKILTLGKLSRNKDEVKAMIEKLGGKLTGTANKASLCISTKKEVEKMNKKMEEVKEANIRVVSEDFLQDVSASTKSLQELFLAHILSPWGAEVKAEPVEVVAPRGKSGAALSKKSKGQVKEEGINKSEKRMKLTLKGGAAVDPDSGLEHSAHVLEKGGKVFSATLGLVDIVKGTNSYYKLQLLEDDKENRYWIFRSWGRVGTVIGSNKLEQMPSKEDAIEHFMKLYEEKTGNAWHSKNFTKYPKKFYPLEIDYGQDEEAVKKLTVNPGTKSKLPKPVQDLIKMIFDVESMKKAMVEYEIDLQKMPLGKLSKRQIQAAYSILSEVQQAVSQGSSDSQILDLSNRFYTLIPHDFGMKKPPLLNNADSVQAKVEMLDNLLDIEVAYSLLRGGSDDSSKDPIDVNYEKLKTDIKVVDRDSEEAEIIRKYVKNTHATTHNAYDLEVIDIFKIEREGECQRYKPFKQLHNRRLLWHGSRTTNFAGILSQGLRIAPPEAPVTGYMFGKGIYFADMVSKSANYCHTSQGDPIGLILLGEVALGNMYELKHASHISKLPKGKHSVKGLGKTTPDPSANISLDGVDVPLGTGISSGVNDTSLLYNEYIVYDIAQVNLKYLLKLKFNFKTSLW", "experiment": "Inhibition of recombinant human PARP-1"}, "[6]": {"molecular_target": "Poly [ADP-ribose] polymerase 2 (Homo sapiens, UniProt Q9UGN5)", "sequence (Q9UGN5 whole entry)": "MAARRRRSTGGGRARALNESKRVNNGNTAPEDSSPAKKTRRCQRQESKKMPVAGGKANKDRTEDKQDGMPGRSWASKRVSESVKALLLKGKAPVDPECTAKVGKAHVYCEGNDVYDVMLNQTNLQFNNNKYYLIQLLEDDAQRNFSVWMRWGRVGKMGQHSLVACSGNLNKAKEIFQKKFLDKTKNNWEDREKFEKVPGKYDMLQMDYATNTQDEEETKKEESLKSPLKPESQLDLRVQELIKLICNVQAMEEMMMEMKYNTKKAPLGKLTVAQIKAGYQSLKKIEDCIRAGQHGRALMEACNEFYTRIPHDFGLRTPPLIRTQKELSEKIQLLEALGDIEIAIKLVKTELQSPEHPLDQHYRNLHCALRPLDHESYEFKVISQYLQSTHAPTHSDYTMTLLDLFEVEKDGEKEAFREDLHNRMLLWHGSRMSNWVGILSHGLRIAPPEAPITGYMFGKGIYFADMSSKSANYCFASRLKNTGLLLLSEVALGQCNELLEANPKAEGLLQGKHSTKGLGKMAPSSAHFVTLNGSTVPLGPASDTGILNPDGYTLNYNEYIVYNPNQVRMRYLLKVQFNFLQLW", "experiment": "Inhibition of recombinant human PARP-2"}, "[7]": {"molecular_target": "T4, Protein mono-ADP-ribosyltransferase PARP3 (Homo sapiens) (UniProt Q9Y6F1)", "T4 sequence (whole entry)": "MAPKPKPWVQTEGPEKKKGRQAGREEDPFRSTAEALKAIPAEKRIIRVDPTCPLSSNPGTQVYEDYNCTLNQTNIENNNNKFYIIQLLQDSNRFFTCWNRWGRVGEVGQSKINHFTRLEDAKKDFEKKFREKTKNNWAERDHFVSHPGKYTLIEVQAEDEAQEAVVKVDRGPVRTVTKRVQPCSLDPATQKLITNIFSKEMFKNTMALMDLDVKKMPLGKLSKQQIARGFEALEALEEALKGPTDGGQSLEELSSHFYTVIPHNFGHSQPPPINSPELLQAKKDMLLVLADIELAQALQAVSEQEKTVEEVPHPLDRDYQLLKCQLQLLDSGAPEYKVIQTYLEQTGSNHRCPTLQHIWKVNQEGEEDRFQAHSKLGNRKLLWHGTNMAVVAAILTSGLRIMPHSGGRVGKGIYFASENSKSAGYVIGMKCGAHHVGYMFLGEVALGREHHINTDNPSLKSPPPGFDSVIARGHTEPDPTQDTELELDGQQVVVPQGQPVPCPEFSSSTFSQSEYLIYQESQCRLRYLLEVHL", "settings": "10 uM", "description": "Inhibition of recombinant human PARP-3 at 10 uM relative to control"}},
  "note": "The source made the active and inactive calls. The rule behind the calls is not given here.",
  "data": [
    {"smiles": "O=C(c1cc(Cc2n[nH]c(=O)c3ccccc23)ccc1F)N1CCN(C(=O)C2CC2)CC1", "values": [
      {"measurement": "inhibition", "setting": "[1]", "value": "> 70", "unit": "%"}
    ]},
    {"smiles": "O=C(Nc1cccc2cccnc12)c1ccc(N2C(=O)[C@@H]3[C@H](C2=O)[C@@H]2C=C[C@H]3C2)cc1", "values": [
      {"measurement": "growth inhibition (GI)", "setting": "DLD-1", "value": "Active"}
    ]},
    {"smiles": "Oc1nc(-c2ccc(C(F)(F)F)cc2)nc2c1CSCC2", "values": [
      {"measurement": "growth inhibition (GI)", "setting": "DLD-1", "value": "Active"}
    ]},
    {"smiles": "Cc1cc(NCCc2ccc(O)cc2)c2nncn2n1", "values": [
      {"measurement": "inhibition", "setting": "[2]", "value": "inactive"},
      {"measurement": "inhibition", "setting": "[3]", "value": "inactive"},
      {"measurement": "inhibition", "setting": "[1]", "value": "inactive"},
      {"measurement": "inhibition", "setting": "[4]", "value": "inactive"},
      {"measurement": "IC50", "setting": "[5]", "value": "> 10", "unit": "µM"},
      {"measurement": "IC50", "setting": "[6]", "value": "> 10", "unit": "µM"},
      {"measurement": "growth inhibition (GI)", "setting": "DLD-1", "value": "Active"},
      {"measurement": "inhibition", "setting": "[7]", "value": "inactive"}
    ]}
  ]
}
